Type in all cases: in vivo, dog
Data set [1] concerns dogs with canine cognitive dysfunction. The data set can be described thus: Cognitive tests (food searching test FST and problem solving test PST) in dogs with cognitive dysfunction. More on the design: Problem solving test scores (sum of FST and PST test), individual patient: scale not given here. As to conditions: for Problem solving score (sum of FST and PST), group mean: treated dogs; for Problem solving test scores (sum of FST and PST test), individual patient: treated group, one line per patient 1-7, Hydrochloride. The protocol: (§1) The study design was following the guidelines of the European Directive 2010/63/EU. Before starting the experimental therapy with their pets, each owner was required to sign an informed consent form. According to The Administration of the Republic of Slovenian for Food Safety, Veterinary and Plant Protection, no ethical permission was needed as the study was performed on clinical patients with the owners' consents. In total, seventeen dogs showing signs of cognitive dysfunction were included in the study. […] Upon enrollment, dogs were physically and neurologically examined, blood and urine analysis were performed. Additionally, a questionnaire based on a modified CADES scale score and two clinical tests (FST and problem PST) for assessing their cognitive function were performed. Dogs were randomly allocated to one of the following two groups: Control group (n=7) without treatment and the treatment group (n=10). Questionnaire and cognitive tests were performed every 2 months on all the dogs included in the study.
FST and PST were performed on each dog included in the study. The design of these tests was based on previously published tests for canine cognitive dysfunction (González-Martinez A. et al. Vet. J. 2013, 198, 176-181). The cognitive tests were evaluated by the same veterinarian. Dogs were tested in the morning after at least 10 hours of the fasting period.
This test was based on testing the dog's ability to find hidden food. The dog was seated in the middle of the room while being on the leash. […] While maintaining visual contact with the dog and still communicating with the dog, showing the food, the veterinarian than moved backward and placed the food in the corner of the room. The veterinarian than stared at the food and pointed to it with his hand for 2-3 s to increase the dog's visual processing. The owner was then asked to leave the room with the dog and wait outside for 15 s. After returning to the room, the dog was placed into the center of the room unleashed and allowed to freely explore the room for 1 minute. No verbal or other clues were allowed. The procedure was repeated twice. […] The FST total score was the average of both runs.
In this test, the ability of the dog to obtain the food by manipulating an object was assessed. […] After that, the food was placed on the floor in front of the dog and covered with a transparent plastic box that had been turned upside down. The dog was given 2 minutes to find a way to remove the box and get the food. […]
Results are presented as mean+SD. […] CADES score and results from behavioral tests were analyzed by repeated measures ANOVA with treatment as the independent variable and clinical test (before the treatment, 3 months, and 6 months after the treatment) as within factor. […]

The test system is the same in data set [2]. The data set can be described thus: Side effects during treatment of dogs with cognitive dysfunction. The procedure: as §1
Owners were observing their dog's health status daily during the duration of the study. In case of any serious or abnormal observations, they had to contact the participating veterinarian. […] Dogs were monitored during examinations. […]

Data set [3] shares this test system. In words: CADES score questionnaire in dogs with cognitive dysfunction. As to conditions: for Average CADES score: treated dogs.
Description: Thirty-one dogs older than 10 years were screened for the study. Of these, 14 were excluded from the study because of different abnormal findings observed during the initial examination, including 3 dogs with brain tumor confirmed with the computed tomography (CT); 2 dogs with markedly elevated alanine aminotransferase (ALT) and serum alkaline phosphatase (ALP); 3 dogs with renal disease; 3 dogs with marked hearing and visual deficit; 2 dogs with both renal disease and moderately elevated ALT and ALP and 1 dog with eclampsia.
After the owner's consent, dogs were subjected to physical and neurological examination including body weight and body condition score, blood results for complete blood count (CBC), clinical chemistry, urinanalysis, the canine dementia scale (CADES) questionnaire, and two clinical cognitive tests [food searching test (FST) and problem solving test (PST)]. After these thorough examinations, the decision was made whether the dogs were included in the study. Dogs with systemic illnesses that could interfere with their cognitive function were excluded from the study.
Only dogs aged 10 years or older were included in the study. […] Dogs were not treated with any other medications for cognitive impairment. However, dogs that were included in the control group were allowed to be feed with the commercial therapeutic diet for cognitive decline, if they were on it at least 8 weeks before entering the study and if they maintained the same dietary protocol for the duration of the study. Dogs in the treatment group that were on a diet meant to treat cognitive decline were required to be off the diet for at least 30 days before enrollment and during the duration of the study.
as §1
Owners were observing their dog's health status daily during the duration of the study. In case of any serious or abnormal observations, they had to contact the participating veterinarian. Physical and excessive neurological examinations (behavior and consciousness, cranial nerves, gait and posture, postural reactions, spinal reflexes) were carried out by the veterinarian and included an assessment of all body systems. A full spectrum of neurobehavioral symptoms including apathy, anxiety, staring blankly, confusion or aimless walking, vocalization during the night, aggression, signs of compulsive and stereotyped behavior, etc. were obtained by questioning the pet owners. Dogs were monitored during examinations. Their responses to familiar and unfamiliar people and objects were observed. Exams were performed at the beginning of the study and every two weeks for the first two months if dogs were included in the treatment group. Thereafter, exams were performed every two months for the duration of the study (at least for 6 months). The control group was examined only every 2 months until the end of the study (for at least 6 months).
Changes in behavior of all dogs were evaluated by the same veterinarian. […]

Where [4] appears, read: treated group, after three months.

Values joined by “and” are separate entries in the source; they are usually repeats but may differ in a detail not shown here. Equal values may be shown once.

For `COCCN(CC1CCCN(Cc2ccccc2)C1)S(=O)(=O)c1ccc2ccccc2c1.Cl` (racemic) [(±)-N-((1-Benzylpiperidin-3-Yl)Methyl)-N-(2-Methoxyethyl)Naphthalene-2-Sulfonamide Hydrochloride], the “Problem solving score (sum of FST and PST), group mean” value was 2.7+/−1.0 in data set [1] (after six months) and 3.1+/−1.1 in data set [1] (after three months, baseline 5.3+/−1.4, untreated 7.6+/−1). Also, the “Problem solving test scores (sum of FST and PST test), individual patient” value in data set [1] (after six months) is 2 (4×) and 3 and 4 (2×); in data set [1] (after three months) it was 4 (4×) and 2 (3×). The Side effects entry is “without any noticeable side effects” in data set [2] (dogs with moderate cognitive impairment, 6 months of treatment); “signs of gastrointestinal problems with vomiting and diarrhea” in data set [2] (dogs with severe cognitive impairment (3 dogs), treatment stopped). For the same compound, the “Observed change in cognitive abilities” value in data set [3] (all treated dogs, six-month study) was “improved memory, cognitive functions, and learning abilities”. For the same compound, the “Average CADES score” value is given as 12.6+/−3.0 in data set [3] (after six months, untreated (2 remaining dogs) 80.5) and 17.1+/−10.6 in data set [3] (after three months, baseline 39+/−16.4, untreated 64.0+/−12.8). The “Cognitive state according to CADES” value in data set [3] (treated group, after six months) was “all dogs showed moderate cognitive impairment with low CADES score”. The “Dogs showing moderate cognitive impairment (two affected domains)” value in data set [3] (setting [4]) stood at 85.7%. Further, the “Dogs showing severe cognitive impairment (three affected domains)” value in data set [3] (setting [4]) was found to be 14.3%. Further, in data set [3] (treated group, six-month study, 5 of 7 untreated dogs euthanized), the Survival entry is “all dogs included stayed alive throughout the study”.

The values are drawn from patent US20230331674A1 (priority 2020, published 2023).
